In the assay the test system is SP2 luciferase (Luciola sp2 firefly luciferase), wild type, SEQ ID NO: 1. Nature of the assay: Km of SP2 luciferase for D-luciferin and ATP (luminescence kinetics, Michaelis-Menten fit). Type of assay: biochemical, Luciola sp2 (Malaysian firefly). The settings on record: for Km: 0.1 M Tris-HCl pH 8.0, MgSO4 8 mM in injected solution.

Read-outs that look alike come from different tables or passages of the source.

The text below walks through data of patent US9523082B2, “Firefly luciferase” (priority 2014, dated 2016).

What is called Km is the substrate concentration at which the rate is half of its maximum.

Method: The measurements were carried out ten times for each sample, and the average of absorbency was used for the calculation.
A solution of 0.1 M Tris-HCl (pH 8.0) containing each of the purified luciferase, 4 mM of ATP, and 8 mM of MgSO4 was connected to the standard pump of the luminometer, and the measurements was carried out at the same time as addition of 50 μl of the solution to the well. A Luminescensor (ATTO) was used for the measurements. Measurements were repeated 3 times for each luciferin concentration.
The peak intensity of the obtained photo count value was plotted with respect to luciferin concentration S, defining the initial rate as V. The plots were subjected to curve fitting of Michaelis Menten type, thereby giving Km values. The curve fitting was performed by a nonlinear least-squares method, and the search of the parameter was performed by a Newton method.
Under various ATP concentrations, the luminous intensity of the obtained luciferase was measured. Based on the results, Km values with respect to ATP was determined.
Various 12 types of ATP solutions were prepared by adding ATP to 0.1 M Tris-HCl (pH 8.0). These solutions contain ATP at final concentration of 5, 10, 20, 40, 80, 160, 320, 480, 640, 800, 1280, 1600, or 1920 μM. These ATP solutions were each injected into 96-hole in a microplate at a volume of 50 μl. […] Measurement was repeated 3 times for each ATP concentration.
The peak intensities of the obtained photon count value were plotted with respect to ATP concentration S, with an initial rate V. The plots were subjected to curve fitting of Michaelis Menten type, thereby giving Km value. The curve fitting was performed by a nonlinear least-squares method, and the search of the parameter was performed by a Newton method.

Consider `Nc1ncnc2c1ncn2[C@@H]1O[C@H](COP(=O)(O)OP(=O)(O)OP(=O)(O)O)[C@@H](O)[C@H]1O` [ATP], for which the Km (D-luciferin 1 mM, read-out: Km ATP) is 188 µM. For the same compound, the “Km with respect to ATP, compared with known luciferase (FIG. 2)” value (comparison in words) is “higher Km values”.
Take `O=C(O)[C@H]1CSC(c2nc3ccc(O)cc3s2)=N1` [D-luciferin]: for the setting “comparison in words”, the “Km with respect to D-luciferin, compared with known luciferase (FIG. 2)” value is given as “higher Km values”. Moreover, the Km (read-out: Km D-luciferin, ATP 4 mM) was found to be 4.25 µM.
